According to ChEMBL document CHEMBL4196010, “New hydrazides derivatives of isoniazid against Mycobacterium tuberculosis: Higher potency and lower hepatocytotoxicity” (Eur J Med Chem, 2018):
In brackets after ≈: the same amount, converted by molar mass.

Assays:
[1] = tested on: Mycobacterium tuberculosis; experiment: Antitubercular activity against Mycobacterium tuberculosis H37Rv ATCC 27294 after 5 days by microplate alamar blue assay; assay type: functional; conditions: H37Rv ATCC 27294, 120 h
[2] = tested on: J774.A1; experiment: Cytotoxicity against mouse J774A.1 cells assessed as decrease in cell viability at 1 uM after 20 hrs by resazurin dye-based fluorimetric method; conditions: j774.a1, 20 h
[3] = tested on: J774.A1; experiment: Cytotoxicity against mouse J774A.1 cells assessed as decrease in cell viability at 10 uM after 20 hrs by resazurin dye-based fluorimetric method; conditions: j774.a1, 20 h
[4] = tested on: J774.A1; experiment: Cytotoxicity against mouse J774A.1 cells assessed as decrease in cell viability at 100 nM after 20 hrs by resazurin dye-based fluorimetric method; conditions: j774.a1, 20 h, 0.1 µM
[5] = tested on: J774.A1; experiment: Cytotoxicity against mouse J774A.1 cells assessed as decrease in cell viability at 1 nM after 20 hrs by resazurin dye-based fluorimetric method; conditions: j774.a1, 20 h, 0.001 µM
[6] = Cytotoxicity against human HepG2 cells after 3 hrs by WST-1 assay; assay type: cell-based; conditions: read-out: LC50
[7] = Selectivity index, ratio of LC50 for human HepG2 cells to MIC for Mycobacterium tuberculosis H37Rv ATCC 27294; assay type: toxicity; conditions: read-out: Selectivity Index
[8] = tested on: J774.A1; experiment: Cytotoxicity against mouse J774A.1 cells assessed as decrease in cell viability at 10 nM after 20 hrs by resazurin dye-based fluorimetric method; conditions: j774.a1, 20 h, 0.01 µM
[9] = tested on: J774.A1; experiment: Cytotoxicity against mouse J774A.1 cells assessed as decrease in cell viability at 100 uM after 20 hrs by resazurin dye-based fluorimetric method; conditions: j774.a1, 20 h
[10] = Cytotoxicity against human HepG2 cells after 24 hrs by WST-1 assay; assay type: cell-based; conditions: read-out: LC50
[11] = tested on: Salmonella typhimurium; experiment: Genotoxicity in Salmonella typhimurium TA98 assessed as increase in revertant colonies at 5000 uM preincubated for 20 mins followed by addition of top agar and minimal agar and measured after 72 hrs in presence of S9 metabolic activation system by Ames test relative to control; assay type: toxicity, organism-based; conditions: salmonella enterica subsp. enterica serovar typhimurium
[12] = tested on: Salmonella typhimurium; experiment: Genotoxicity in Salmonella typhimurium TA100 assessed as increase in revertant colonies at 0.5 uM preincubated for 20 mins followed by addition of top agar and minimal agar and measured after 72 hrs in presence of S9 metabolic activation system by Ames test relative to control; assay type: toxicity, organism-based; conditions: salmonella enterica subsp. enterica serovar typhimurium
[13] = tested on: Salmonella typhimurium; experiment: Genotoxicity in Salmonella typhimurium TA98 assessed as increase in revertant colonies at 0.5 uM preincubated for 20 mins followed by addition of top agar and minimal agar and measured after 72 hrs in presence of S9 metabolic activation system by Ames test relative to control; assay type: toxicity, organism-based; conditions: salmonella enterica subsp. enterica serovar typhimurium
[14] = tested on: Salmonella typhimurium; experiment: Genotoxicity in Salmonella typhimurium TA100 assessed as increase in revertant colonies at 5 uM preincubated for 20 mins followed by addition of top agar and minimal agar and measured after 72 hrs in presence of S9 metabolic activation system by Ames test relative to control; assay type: toxicity, organism-based; conditions: salmonella enterica subsp. enterica serovar typhimurium
[15] = tested on: Salmonella typhimurium; experiment: Genotoxicity in Salmonella typhimurium TA98 assessed as increase in revertant colonies at 5000 uM preincubated for 20 mins followed by addition of top agar and minimal agar and measured after 72 hrs in absence of S9 metabolic activation system by Ames test relative to control; assay type: toxicity, organism-based; conditions: salmonella enterica subsp. enterica serovar typhimurium
[16] = tested on: Salmonella typhimurium; experiment: Genotoxicity in Salmonella typhimurium TA98 assessed as increase in revertant colonies at 50 uM preincubated for 20 mins followed by addition of top agar and minimal agar and measured after 72 hrs in absence of S9 metabolic activation system by Ames test relative to control; assay type: toxicity, organism-based; conditions: salmonella enterica subsp. enterica serovar typhimurium
[17] = tested on: Salmonella typhimurium; experiment: Genotoxicity in Salmonella typhimurium TA100 assessed as increase in revertant colonies at 50 uM preincubated for 20 mins followed by addition of top agar and minimal agar and measured after 72 hrs in presence of S9 metabolic activation system by Ames test relative to control; assay type: toxicity, organism-based; conditions: salmonella enterica subsp. enterica serovar typhimurium
[18] = tested on: Salmonella typhimurium; experiment: Genotoxicity in Salmonella typhimurium TA100 assessed as increase in revertant colonies at 500 uM preincubated for 20 mins followed by addition of top agar and minimal agar and measured after 72 hrs in absence of S9 metabolic activation system by Ames test relative to control; assay type: toxicity, organism-based; conditions: salmonella enterica subsp. enterica serovar typhimurium
[19] = tested on: Salmonella typhimurium; experiment: Genotoxicity in Salmonella typhimurium TA100 assessed as increase in revertant colonies at 50 uM preincubated for 20 mins followed by addition of top agar and minimal agar and measured after 72 hrs in absence of S9 metabolic activation system by Ames test relative to control; assay type: toxicity, organism-based; conditions: salmonella enterica subsp. enterica serovar typhimurium
[20] = tested on: Salmonella typhimurium; experiment: Genotoxicity in Salmonella typhimurium TA98 assessed as increase in revertant colonies at 5 uM preincubated for 20 mins followed by addition of top agar and minimal agar and measured after 72 hrs in absence of S9 metabolic activation system by Ames test relative to control; assay type: toxicity, organism-based; conditions: salmonella enterica subsp. enterica serovar typhimurium
[21] = tested on: Salmonella typhimurium; experiment: Genotoxicity in Salmonella typhimurium TA100 assessed as increase in revertant colonies at 5 uM preincubated for 20 mins followed by addition of top agar and minimal agar and measured after 72 hrs in absence of S9 metabolic activation system by Ames test relative to control; assay type: toxicity, organism-based; conditions: salmonella enterica subsp. enterica serovar typhimurium
[22] = tested on: Mycobacterium tuberculosis; experiment: Potency index, ratio of ethambutol MIC to compound MIC for antitubercular activity against Mycobacterium tuberculosis H37Rv ATCC 27294; assay type: functional
[23] = tested on: Salmonella typhimurium; experiment: Genotoxicity in Salmonella typhimurium TA98 assessed as increase in revertant colonies at 5 uM preincubated for 20 mins followed by addition of top agar and minimal agar and measured after 72 hrs in presence of S9 metabolic activation system by Ames test relative to control; assay type: toxicity, organism-based; conditions: salmonella enterica subsp. enterica serovar typhimurium
[24] = tested on: Salmonella typhimurium; experiment: Genotoxicity in Salmonella typhimurium TA100 assessed as increase in revertant colonies at 0.5 uM preincubated for 20 mins followed by addition of top agar and minimal agar and measured after 72 hrs in absence of S9 metabolic activation system by Ames test relative to control; assay type: toxicity, organism-based; conditions: salmonella enterica subsp. enterica serovar typhimurium
[25] = tested on: Mycobacterium tuberculosis; experiment: Potency index, ratio of pyrazinamide MIC to compound MIC for antitubercular activity against Mycobacterium tuberculosis H37Rv ATCC 27294; assay type: functional
[26] = tested on: Salmonella typhimurium; experiment: Genotoxicity in Salmonella typhimurium TA98 assessed as increase in revertant colonies at 50 uM preincubated for 20 mins followed by addition of top agar and minimal agar and measured after 72 hrs in presence of S9 metabolic activation system by Ames test relative to control; assay type: toxicity, organism-based; conditions: salmonella enterica subsp. enterica serovar typhimurium
[27] = tested on: Salmonella typhimurium; experiment: Genotoxicity in Salmonella typhimurium TA98 assessed as increase in revertant colonies at 500 uM preincubated for 20 mins followed by addition of top agar and minimal agar and measured after 72 hrs in presence of S9 metabolic activation system by Ames test relative to control; assay type: toxicity, organism-based; conditions: salmonella enterica subsp. enterica serovar typhimurium
[28] = tested on: Salmonella typhimurium; experiment: Genotoxicity in Salmonella typhimurium TA98 assessed as increase in revertant colonies at 0.5 uM preincubated for 20 mins followed by addition of top agar and minimal agar and measured after 72 hrs in absence of S9 metabolic activation system by Ames test relative to control; assay type: toxicity, organism-based; conditions: salmonella enterica subsp. enterica serovar typhimurium
[29] = tested on: Salmonella typhimurium; experiment: Genotoxicity in Salmonella typhimurium TA100 assessed as increase in revertant colonies at 5000 uM preincubated for 20 mins followed by addition of top agar and minimal agar and measured after 72 hrs in absence of S9 metabolic activation system by Ames test relative to control; assay type: toxicity, organism-based; conditions: salmonella enterica subsp. enterica serovar typhimurium
[30] = tested on: Salmonella typhimurium; experiment: Genotoxicity in Salmonella typhimurium TA98 assessed as increase in revertant colonies at 500 uM preincubated for 20 mins followed by addition of top agar and minimal agar and measured after 72 hrs in absence of S9 metabolic activation system by Ames test relative to control; assay type: toxicity, organism-based; conditions: salmonella enterica subsp. enterica serovar typhimurium

## CO[C@H]1/C=C/O[C@@]2(C)Oc3c(C)c(O)c4c(O)c(c(/C=N/N5CCN(C)CC5)c(O)c4c3C2=O)NC(=O)/C(C)=C\C=C\[C@H](C)[C@H](O)[C@@H](C)[C@@H](O)[C@@H](C)[C@H](OC(C)=O)[C@@H]1C [RIFAMPIN]
[1]
  MIC: 1.22 µM (≈ 1 µg/mL)

## CC(=O)Nc1ccccc1C(F)(F)C(=O)NNC(=N)N
[1]
  MIC: > 351 µM

## CC(=O)Nc1ccc(C)cc1C(F)(F)C(=O)NNc1ccccn1
[1]
  MIC: > 299 µM

## O=C(NNC(=O)c1ccncc1)C(=O)c1ccccc1NC(=O)c1ccccc1
[2]
  Activity: 98.2%
[3]
  Activity: 98%
[1]
  MIC: 8.04 µM (≈ 3.12 µg/mL)
[4]
  Activity: 99.8%
[5]
  Activity: 100%
[6]
  CC50 at 3 h: > 200 µM
[7]
  selectivity ratio: > 25
[8]
  Activity: 99.4%
[9]
  Activity: 86.5%
[10]
  CC50 at 24 h: > 200 µM

## CC(=O)Nc1ccccc1C(F)(F)C(=O)NNC(=O)c1ccncc1
[1]
  MIC: 3.59 µM (≈ 1.25 µg/mL)

## CC(=O)Nc1ccc(C)cc1C(=O)C(=O)NNC(=O)c1ccncc1
[11]
  fold change (FC): 4
[12]
  fold change (FC): 1.1
[2]
  Activity: 99.2%
[13]
  fold change (FC): 1
[14]
  fold change (FC): 1.5
[15]
  fold change (FC): 3.4
[16]
  fold change (FC): 1.8
[17]
  Activity: Toxic
[3]
  Activity: 98.2%
[18]
  fold change (FC): 1.4
[1]
  MIC: 0.45 µM (≈ 0.153 µg/mL)
[19]
  fold change (FC): 1.4
[20]
  fold change (FC): 1.6
[4]
  Activity: 99.5%
[5]
  Activity: 100%
[21]
  fold change (FC): 1.2
[6]
  CC50 at 3 h: > 200 µM
[22]
  Ratio: 30
[23]
  fold change (FC): 1.7
[7]
  selectivity ratio: > 444
[8]
  Activity: 100%
[9]
  Activity: 94%
[24]
  fold change (FC): 1.2
[25]
  Ratio: 1800
[26]
  fold change (FC): 1.8
[27]
  fold change (FC): 3.4
[10]
  CC50 at 24 h: > 200 µM
[28]
  fold change (FC): 1.2
[29]
  fold change (FC): 1.6
[30]
  fold change (FC): 1.9

## CC(=O)Nc1ccc(C)cc1C(F)(F)C(=O)NN
[1]
  MIC: > 412 µM

## NNC(=O)c1ccncc1 [ISONIAZID]
[11]
  Activity: Toxic
[12]
  fold change (FC): 1.4
[2]
  Activity: 98.7%
[13]
  fold change (FC): 1.3
[14]
  fold change (FC): 1.4
[15]
  fold change (FC): 4
[16]
  fold change (FC): 2
[17]
  Activity: Toxic
[3]
  Activity: 98.5%
[18]
  fold change (FC): 1.6
[1]
  MIC: 0.88 µM (≈ 0.121 µg/mL)
[19]
  fold change (FC): 1.3
[20]
  fold change (FC): 1.6
[4]
  Activity: 97.3%
[5]
  Activity: 99.5%
[21]
  fold change (FC): 1.2
[6]
  CC50 at 3 h: > 200 µM
[23]
  fold change (FC): 1.3
[7]
  selectivity ratio: 119
[8]
  Activity: 98.2%
[9]
  Activity: 90.3%
[24]
  fold change (FC): 1.1
[26]
  fold change (FC): 1.5
[27]
  fold change (FC): 1.6
[10]
  CC50 at 24 h: 105 µM
[28]
  fold change (FC): 1.5
[29]
  fold change (FC): 1.9
[30]
  fold change (FC): 3.7

## CC(=O)Nc1ccc(C)cc1C(F)(F)C(=O)NNC(=O)c1ccncc1
[1]
  MIC: 6.91 µM (≈ 2.5 µg/mL)

## CC(=O)Nc1ccc(C)cc1C(F)(F)C(=O)NNc1ccccc1
[1]
  MIC: > 300 µM

## CC[C@@H](CO)NCCN[C@@H](CC)CO [ETHAMBUTOL]
[1]
  MIC: 15.9 µM (≈ 3.25 µg/mL)

## CC(=O)Nc1ccc(Cl)cc1C(F)(F)C(=O)NNC(=O)c1ccncc1
[1]
  MIC: 16.4 µM (≈ 6.27 µg/mL)

## CC(=O)Nc1ccccc1C(F)(F)C(=O)NNc1ccccn1
[1]
  MIC: > 312 µM

## CC(=O)Nc1ccccc1C(F)(F)C(=O)NN=C1CCCCC1
[1]
  MIC: > 310 µM

## CC(=O)Nc1ccc(F)cc1C(F)(F)C(=O)NNC(=O)c1ccncc1
[1]
  MIC: 17.1 µM (≈ 6.26 µg/mL)

## NC(=O)c1cnccn1 [PYRAZINAMIDE]
[1]
  MIC: 813 µM (≈ 100 µg/mL)

## CC(=O)Nc1ccccc1C(F)(F)C(=O)NNc1ccccc1
[1]
  MIC: > 313 µM

## O=C(CCl)Nc1ccccc1C(=O)C(=O)NNC(=O)c1ccncc1
[2]
  Activity: 96.5%
[3]
  Activity: 98.8%
[1]
  MIC: 0.43 µM (≈ 0.155 µg/mL)
[4]
  Activity: 97.9%
[5]
  Activity: 99%
[6]
  CC50 at 3 h: > 200 µM
[22]
  Ratio: 30
[7]
  selectivity ratio: 256
[8]
  Activity: 98.5%
[9]
  Activity: 63.3%
[25]
  Ratio: 1800
[10]
  CC50 at 24 h: 110 µM

## COc1ccc(NC(C)=O)c(C(F)(F)C(=O)NNC(=O)c2ccncc2)c1
[1]
  MIC: 33.1 µM (≈ 12.5 µg/mL)

## CC(=O)NNC(=O)c1ccncc1
[1]
  MIC: > 559 µM
